Molecular target: β-tubulin (Homo sapiens, UniProt P07437)
Assay: SPR
Type: binding

Sequence of β-tubulin (P07437 whole entry): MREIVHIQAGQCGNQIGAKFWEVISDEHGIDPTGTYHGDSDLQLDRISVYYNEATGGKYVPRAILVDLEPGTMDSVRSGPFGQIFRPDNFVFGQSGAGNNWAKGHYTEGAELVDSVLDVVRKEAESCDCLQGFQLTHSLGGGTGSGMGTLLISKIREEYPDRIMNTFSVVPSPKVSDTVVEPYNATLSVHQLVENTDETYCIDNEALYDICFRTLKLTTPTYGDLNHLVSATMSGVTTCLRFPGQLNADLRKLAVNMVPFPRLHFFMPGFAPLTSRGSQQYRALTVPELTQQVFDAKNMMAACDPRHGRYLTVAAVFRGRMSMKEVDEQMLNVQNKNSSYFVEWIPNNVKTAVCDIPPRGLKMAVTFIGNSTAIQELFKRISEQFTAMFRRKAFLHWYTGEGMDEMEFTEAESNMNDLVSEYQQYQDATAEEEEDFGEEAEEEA

| Kd [nM] | Compound |
| --- | --- |
| 1590 | O=c1c(O)c(-c2ccc(O)c(O)c2)oc2cc(O)ccc12 [fisetin] |
| 2260 | CC(=O)O[C@H]1C(=O)[C@@]2(C)[C@H]([C@H](OC(=O)c3ccccc3)[C@]3(O)C[C@H](OC(=O)[C@H](O)[C@@H](NC(=O)c4ccccc4)c4ccccc4)C(C)=C1C3(C)C)[C@]1(OC(C)=O)CO[C@@H]1C[C@@H]2O [paclitaxel] |
